From patent US8617872B2, “Compositions for culturing spirochetes” (priority 2000, dated 2013)

How the values were obtained:
Assay type in all cases: cell-based
[1] = test system: Leptospira; test: Susceptibility testing of Leptospira isolated from a patient with symptoms of multiple sclerosis; conditions: for Antibiotic Susceptibility Results, SERUM: Leptospira culture from serum of multiple sclerosis patient; for Antibiotic Susceptibility Results, URINE: Leptospira culture from urine of multiple sclerosis patient
Procedure: This example describes the preparation of a pellet used for antimicrobial susceptibility testing of a culture sample. […] In order to form pellet, an aliquot of this culture sample is placed in a microcentrifuge tube along with 10% SDS solution, and centrifuged at 14,000 g to disrupt the spirochetes and maximize the number of available eptiopic sites. […] This inoculated alternative growth medium was then allowed to incubate in the closed micro centrifuge tube until a distinctive pellet was observed (typically 7-14 days).
(§1) MICROSCAN antibiotic susceptibility microtiter plates were then inoculated with (e.g., 110 μl of) inoculum and allowed to incubate at 35° C. for 16-20 hours. The microtiter plates were then scanned for growth and respective sensitivity reaction (both the control well and the growth well).

[2] = test system: Y. entero gp.; test: Antibiotic susceptibility test (MICROSCAN or disc diffusion), control organism Y. entero gp.; conditions: total isolates 1
[3] = test system: Leptospira; test: Susceptibility testing of Leptospira isolated from a patient with symptoms of rheumatoid arthritis; conditions: for Antibiotic Susceptibility Results, SERUM: Leptospira culture from serum of rheumatoid arthritis patient; for Antibiotic Susceptibility Results, URINE: Leptospira culture from urine of rheumatoid arthritis patient
Text: (§2) This example describes the preparation of a pellet used for antimicrobial susceptibility testing of a culture sample. The procedure begins with a culture (e.g., prepared in the manner described in Example 2), where serum from a patient is inoculated in GSI-1 media and allowed to grow. In order to form pellet, an aliquot of this culture sample is placed in a microcentrifuge tube along with 10% SDS solution, and centrifuged at 14,000 g to disrupt the spirochetes and maximize the number of available eptiopic sites. The disrupted spirochetes were then cultured in an alternative growth medium made up of one part GSI-1 medium, one part 6.5% lactalbumin hydrolysate, one part 2% brain heart infusion, one part 10% pluronic fluid, and one part of the isolated (disrupted) spirochetes. This inoculated alternative growth medium was then allowed to incubate in the closed micro centrifuge tube until a distinctive pellet was observed (typically 7-14 days).
as §1, with “Following the observation of pellet formation, the tube was vortexed and incubated at 35° C. until a MacFarlane standard of between 8 to 12% turbidity was achieved. MICROSCAN” for “MICROSCAN”
This Example describes the diagnosis and treatment of a human patient with symptoms of rheumatoid arthritis. In particular, serum and urine samples from this patient were initially cultured on GSI-1 (e.g., as described in Example 2), and screened for the presence of spirochetes (e.g., as described in Example 3). […] These cultures were then used to produce pellets for antimicrobial susceptibility testing (e.g., as described in Example 6). The antimicrobial susceptibility tests were then carried out on each sample (e.g., as described in Example 7) with the antimicrobials listed below in Table 5.

[4] = test system: Borrelia; test: Antibiotic susceptibility test (MICROSCAN or disc diffusion) of patient samples positive for Borrelia; conditions: total isolates 519
Text: as §2
(§3) Following the observation of pellet formation, the tube was vortexed and incubated at 35° C. until a MacFarlane standard of between 8 to 12% turbidity was achieved. MICROSCAN antibiotic susceptibility microtiter plates were then inoculated with (e.g., 110 μl of) inoculum and allowed to incubate at 35° C. for 16-20 hours. The microtiter plates were then scanned for growth and respective sensitivity reaction (both the control well and the growth well). Table 2 below lists the various antimicrobials tested with this sample and whether growth of the organism was inhibited (susceptible) or whether the growth of the organism was not inhibited (resistant).
(§4) This Example describes the results for susceptibility tests that were performed on a large number of patient samples positive for either Borrelia or Leptospira. […] The results presented in Table 3 reveal the varied response of different types of spirochetes to different antibiotics.

[5] = test system: Treponema isolate; test: Antimicrobial susceptibility test (MICROSCAN plates) of a patient's Treponema isolate; conditions: Treponema infected patient's isolate; MICROSCAN plates, 35° C., 16-20 hours
Procedure: For susceptibility testing, the organisms harvested could be assayed using any suitable susceptibility assay (See, Example 7). In some embodiments of the present invention, MICROSCAN antibiotic susceptibility plates were inoculated and incubated. Following incubations, plates were scanned for growth and respective sensitivity reaction. […] For the results to be considered reliable, the no growth of organisms was accepted in the negative control well, while the positive control well had to have sufficient growth to be read. In some embodiments of the present invention, to confirm the presence or absence of growing spirochetes in the growth well, aliquots from the growth well were reinoculated with fresh growth media and after an incubation time (e.g., 7-10 days) the presence of the organisms was confirmed (e.g., by phase contrast microscopy or direct fluorescent antibody staining).
as §2
This example describes an antimicrobial susceptibility test performed for a human patient. The patient had previously been testing using GSI-1 medium (e.g., as described in Example 2) for the presence of any spirochetes. […] This culture sample was then transferred to a microcentrifuge tube, and a pellet for antimicrobial susceptibility testing was prepared as described in Example 6.
as §3

[6] = test system: E. coli; test: Antibiotic susceptibility test (MICROSCAN or disc diffusion), control organism E. coli; conditions: total isolates 1
[7] = test system: Leptospira; test: Antibiotic susceptibility test (MICROSCAN or disc diffusion) of patient samples positive for Leptospira; conditions: total isolates 276
Text: as §2, §3, §4

[8] = test system: Tatumella; test: Antibiotic susceptibility test (MICROSCAN or disc diffusion), control organism Tatumella; conditions: total isolates 2
Text: as §2, §3, §4

[9] = test system: A. lwoffii; test: Antibiotic susceptibility test (MICROSCAN or disc diffusion), control organism A. lwoffii; conditions: total isolates 1
[10] = test system: Pseudomonas; test: Antibiotic susceptibility test (MICROSCAN or disc diffusion), control organism Pseudomonas; conditions: total isolates 1

Compound | Antibiotic Susceptibility Results, SERUM [1] | Antibiotic Susceptibility Results, URINE [1] | Antibiotic Susceptibility Results, SERUM [3] | Antibiotic Susceptibility Results, URINE [3] | RESULT (antibiotic susceptibility) [5] | further results
CC1(C)S[C@@H]2[C@H](NC(=O)[C@H](N)c3ccccc3)C(=O)N2[C@H]1C(=O)O [Ampicillin] | Resistant | Resistant | Resistant | Resistant | Susceptible | Antibiotic Susceptibility Test Results, Y. entero gp. [2]: 100%; Antibiotic Susceptibility Test Results, Borrelia [4]: 61%; Antibiotic Susceptibility Test Results, E. coli [6]: 100%; Antibiotic Susceptibility Test Results, Leptospira [7]: 54%; Antibiotic Susceptibility Test Results, Tatumella [8]: 100%
CC[C@H]1OC(=O)[C@H](C)[C@@H](O[C@H]2C[C@@](C)(OC)[C@@H](O)[C@H](C)O2)[C@H](C)[C@@H](O[C@@H]2O[C@H](C)C[C@H](N(C)C)[C@H]2O)[C@](C)(O)C[C@@H](C)CN(C)[C@H](C)[C@@H](O)[C@]1(C)O [Azithromycin] | Resistant | Resistant | Resistant | Resistant |  | 
Cc1nnc(SCC2=C(C(=O)O)N3C(=O)[C@@H](NC(=O)Cn4cnnn4)[C@H]3SC2)s1 [Cefazolin] |  |  |  |  | Resistant | 
CO/N=C(\C(=O)N[C@@H]1C(=O)N2C(C(=O)[O-])=C(C[N+]3(C)CCCC3)CS[C@H]12)c1csc(N)n1 [Cefepime] |  |  |  |  |  | Antibiotic Susceptibility Test Results, Y. entero gp. [2]: 100%; Antibiotic Susceptibility Test Results, Borrelia [4]: 49%; Antibiotic Susceptibility Test Results, E. coli [6]: 100%; Antibiotic Susceptibility Test Results, A. lwoffii [9]: 100%; Antibiotic Susceptibility Test Results, Pseudomonas [10]: 100%; Antibiotic Susceptibility Test Results, Leptospira [7]: 54%; Antibiotic Susceptibility Test Results, Tatumella [8]: 0%
CO/N=C(\C(=O)N[C@@H]1C(=O)N2C(C(=O)O)=C(COC(N)=O)CS[C@H]12)c1ccco1 [Cefuroxime] | Resistant | Resistant | Resistant | Resistant |  | Antibiotic Susceptibility Test Results, Y. entero gp. [2]: 100%; Antibiotic Susceptibility Test Results, Borrelia [4]: 59%; Antibiotic Susceptibility Test Results, E. coli [6]: 100%; Antibiotic Susceptibility Test Results, Leptospira [7]: 59%; Antibiotic Susceptibility Test Results, Tatumella [8]: 0%
CC(=O)OCC1=C(C(=O)O)N2C(=O)[C@@H](NC(=O)Cc3cccs3)[C@H]2SC1 [Cephalothin] |  |  |  |  | Susceptible | 
CC[C@H]1OC(=O)[C@H](C)[C@@H](O[C@H]2C[C@@](C)(OC)[C@@H](O)[C@H](C)O2)[C@H](C)[C@@H](O[C@@H]2O[C@H](C)C[C@H](N(C)C)[C@H]2O)[C@](C)(OC)C[C@@H](C)C(=O)[C@H](C)[C@@H](O)[C@]1(C)O [Clarithromycin] | Resistant | Resistant | Resistant | Resistant |  | 
CCC[C@@H]1C[C@@H](C(=O)N[C@@H]([C@H]2O[C@H](SC)[C@H](O)[C@@H](O)[C@H]2O)[C@H](C)Cl)N(C)C1 [Clindamycin] | Resistant | Resistant | Resistant | Resistant |  | 
CC[C@H]1OC(=O)[C@H](C)[C@@H](O[C@H]2C[C@@](C)(OC)[C@@H](O)[C@H](C)O2)[C@H](C)[C@@H](O[C@@H]2O[C@H](C)C[C@H](N(C)C)[C@H]2O)[C@](C)(O)C[C@@H](C)C(=O)[C@H](C)[C@@H](O)[C@]1(C)O [Erythromycin] | Resistant | Resistant | Resistant | Resistant |  | 
C[C@@H](O)[C@H]1C(=O)N2C(C(=O)O)=C(SCCN=CN)C[C@H]12 [Imipenem] | Resistant | Resistant |  |  |  | Antibiotic Susceptibility Test Results, Y. entero gp. [2]: 100%; Antibiotic Susceptibility Test Results, Borrelia [4]: 84%; Antibiotic Susceptibility Test Results, E. coli [6]: 100%; Antibiotic Susceptibility Test Results, A. lwoffii [9]: 100%; Antibiotic Susceptibility Test Results, Pseudomonas [10]: 100%; Antibiotic Susceptibility Test Results, Leptospira [7]: 77%; Antibiotic Susceptibility Test Results, Tatumella [8]: 100%
CC1(C)S[C@@H]2[C@H](NC(=O)[C@H](NC(=O)N3CCN(S(C)(=O)=O)C3=O)c3ccccc3)C(=O)N2[C@H]1C(=O)O [Mezlocillin] |  |  |  |  | Susceptible | 
CCN[C@@H]1C[C@H](N)[C@@H](O[C@H]2OC(CN)=CC[C@H]2N)[C@H](O)[C@H]1O[C@H]1OC[C@](C)(O)[C@H](NC)[C@H]1O [Netilmicin] |  |  |  |  | Resistant | 
CCn1cc(C(=O)O)c(=O)c2cc(F)c(N3CCNCC3)cc21 [Norfloxacin] |  | Susceptible |  | Susceptible |  | 
CO[C@H]1/C=C/O[C@@]2(C)Oc3c(C)c(O)c4c(O)c(c(/C=N/N5CCN(C)CC5)c(O)c4c3C2=O)NC(=O)/C(C)=C\C=C\[C@H](C)[C@H](O)[C@@H](C)[C@@H](O)[C@@H](C)[C@H](OC(C)=O)[C@@H]1C [Rifampin] | Resistant | Resistant | Resistant | Resistant |  | 
CN(C)[C@@H]1C(O)=C(C(N)=O)C(=O)[C@@]2(O)C(O)=C3C(=O)c4c(O)cccc4[C@@](C)(O)[C@H]3C[C@@H]12 [Tetracycline] | Resistant | Resistant | Resistant | Resistant | Resistant | 
CC1(C)S[C@@H]2[C@H](NC(=O)[C@H](C(=O)O)c3ccsc3)C(=O)N2[C@H]1C(=O)O [Ticarcillin] |  |  |  |  | Susceptible | 
Ampicillin/Sulbactam |  |  |  |  | Susceptible | 
Penicillin |  |  | Resistant | Resistant |  | 
Piperacillin/Tazobactam | Intermediate | Intermediate | Intermediate | Intermediate |  | Antibiotic Susceptibility Test Results, Y. entero gp. [2]: 100%; Antibiotic Susceptibility Test Results, Borrelia [4]: 88%; Antibiotic Susceptibility Test Results, E. coli [6]: 100%; Antibiotic Susceptibility Test Results, Pseudomonas [10]: 100%; Antibiotic Susceptibility Test Results, Leptospira [7]: 86%; Antibiotic Susceptibility Test Results, Tatumella [8]: 100%
Trimethoprim Sulfate |  |  | Susceptible | Susceptible |  | 
Trimethoprim/Sulfamethoxazole | Susceptible | Susceptible |  |  | Resistant | 
